Measured values: patent US5583000A, “Protease-binding compounds and methods of use” (priority 1993, dated 1996)
In brackets after ≈: the same amount, converted by molar mass. Where two headings read alike, the source gives them in different places.

Tests used:
[1] = in vitro
[2] = molecular target: HIV-1 protease (Human immunodeficiency virus type 1 group M subtype B, UniProt P03369); assay: biochemical
[3] = physchem
[4] = molecular target: T1, HIV-2 protease (Human immunodeficiency virus type 2 subtype A, UniProt P04584); assay: biochemical; conditions: 1M NaCl
T1 construct: the coding region of the 99-amino acid protease; made in house; host or cells: Saccharomyces cerevisiae strain AB110, plasmid pHIV2PR115
T1 sequence (P04584 514-612 limits assumed): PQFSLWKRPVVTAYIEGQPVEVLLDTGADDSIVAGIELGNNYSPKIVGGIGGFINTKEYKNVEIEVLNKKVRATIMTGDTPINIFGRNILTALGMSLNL
Procedure: The decapeptide was synthesized by conventional solid-state methods. Reactions were carried out and fractionated by HPLC. Conversion of the decapeptide to the two pentapeptides was quantitated by integration of the peak areas and comparison to product standard curves.
Enzymatic Inhibition. […] Each data point was done in triplicate and initial enzyme rates were fit to the Michaelis-Menten equation using a nonlinear regression program ("Enzfitter" from Biosoft).

[5] = HIV-1 Protease IC50 (μM) 1M NaCl
[6] = read-out: HIV-1 Protease IC50 (μM) 1M NaCl
[7] = HIV-1 Protease IC50 (μM) 1M NaCl, 1M NaCl

C[C@@H]1SC(CCCN2CCC(O)(c3ccc(Cl)cc3)CC2)(c2ccc(F)cc2)S[C@H]1C (relative stereo) [UCSF12, (trans-2,3-butanethioacetal)-4-[4-(p-chlorophenyl)-4-hydroxypiperidinyl]-4'-fluorobutyro-phenone]
CC50 at 6 h [1]: 35 µM | HIV-1 Protease Therapeutic Index (LD50 /IC50) [2]: 0.5 | IC50 [2, 5]: 350 µM | solubility [3]: < 250 µM | IC50 [4]: 50 µM

C[C@@H]1SC(CCCN2CCC(O)(c3ccc(Cl)cc3)CC2)(c2ccc(F)cc2)S[C@@H]1C (relative stereo) [UCSF64]
CC50 at 6 h [1]: 25 µM | IC50 [2, 5]: 16 µM | solubility [3]: < 50 µM | IC50 [4]: 29 µM

O=C(CCC[N+]1([O-])CCC(O)(c2ccc(Cl)cc2)CC1)c1ccc(F)cc1 (stereo not drawn) [UCSF3, 4-[4-(p-chlorophenyl)-4-hydroxy-N-oxopiperidinyl]-4'-fluorobutyrophenone]
CC50 at 6 h [1]: > 500 µM | HIV-1 Protease Therapeutic Index (LD50 /IC50) [2]: > 2.5 | IC50 [2, 5]: 100 µM | solubility [3]: < 250 µM | IC50 [4]: 135 µM

ON=C(CCCN1CCC(O)(c2ccc(Cl)cc2)CC1)c1ccc(F)cc1 [UCSF4, 4-[4-(p-chlorophenyl)-4-hydroxypiperidinyl]-4'-fluorobutyrophenone oxime]
HIV-1 Protease Therapeutic Index (LD50 /IC50) [2]: 0.7 | IC50 [2, 5]: 100 µM | solubility [3]: > 250 µM | IC50 [4]: 116 µM

C[N+]1(CCCC(=O)c2ccc(F)cc2)CCC(O)(c2ccc(Cl)cc2)CC1 (stereo not drawn) [UCSF5, 4-[4-(p-chlorophenyl)-4-hydroxy-N-methylpiperidinyl]-4'-fluorobutyrophenone]
CC50 at 6 h [1]: > 500 µM | HIV-1 Protease Therapeutic Index (LD50 /IC50) [2]: > 6.3 | IC50 [2, 5]: 79 µM | solubility [3]: > 250 µM | IC50 [4]: > 1000 µM

CC(=O)OC1(c2ccc(Cl)cc2)CCN(CCCC(=O)c2ccc(F)cc2)CC1 [UCSF6, 4-[4-(p-chlorophenyl)-4-acetoxypiperidinyl]-4'-fluorobutyrophenone]
CC50 at 6 h [1]: 250 µM | IC50 ([2]; 1M NaCl): 725 µM | HIV-1 Protease Therapeutic Index (LD50 /IC50) ([2]; LD50/IC50): 0.3 | solubility [3]: > 250 µM | IC50 [4]: 533 µM

NN=C(CCCN1CCC(O)(c2ccc(Cl)cc2)CC1)c1ccc(F)cc1 [UCSF7, 4-[4-(p-chlorophenyl)-4-hydroxypiperidinyl]-4'-fluorobutyrophenone hydrazone]
HIV-1 Protease Therapeutic Index (LD50 /IC50) [2]: 0.9 | IC50 [2, 5]: 100 µM | solubility [3]: > 250 µM | IC50 [4]: 200 µM

OC1(c2ccc(Cl)cc2)CCN(CCCC2(c3ccc(F)cc3)SCCCS2)CC1 [UCSF10, (1,3-propanethioacetal)-4-[4-(p-chlorophenyl)-4-hydroxypiperidinyl]-4'-fluorobutyrophenone]
CC50 at 6 h [1]: 30 µM | HIV-1 Protease Therapeutic Index (LD50 /IC50) [2]: 2 | IC50 [2, 5]: 15 µM | solubility [3]: < 100 µM | IC50 [4]: 88 µM

O=C(CCCN1CC=C(c2ccc(Cl)cc2)CC1)c1ccc(F)cc1 [UCSF11, 4-[4-(p-chlorophenyl)]-N-[4-(4'-fluorobutyrophenone)]-1,2,5,6-tetrahydropyridine]
CC50 at 6 h [1]: 250 µM | IC50 ([2]; 1M NaCl): 750 µM | HIV-1 Protease Therapeutic Index (LD50 /IC50) ([2]; LD50/IC50): 0.3 | solubility [3]: < 250 µM | IC50 [4]: 310 µM

OCCNN=C(CCCN1CCC(O)(c2ccc(Cl)cc2)CC1)c1ccc(F)cc1 [UCSF14]
CC50 at 6 h [1]: 500 µM | HIV-1 Protease Therapeutic Index (LD50 /IC50) [2]: 10 | IC50 [2, 5]: 50 µM | solubility [3]: 500 µM (≈ 217 µg/mL) | IC50 [4]: 90 µM

O=C(CCC[N+]1(CCc2ccccc2)CCC(O)(c2ccc(Cl)cc2)CC1)c1ccc(F)cc1 (stereo not drawn) [UCSF15, 4-[4-(p-chlorophenyl)-4-hydroxy-[N-(2-phenyl)ethyl]piperidinyl]-4'-fluorobutyrophenone]
HIV-1 Protease Therapeutic Index (LD50 /IC50) [2]: 0.3 | IC50 [2, 5]: 150 µM | solubility [3]: > 250 µM | IC50 [4]: 250 µM

OC1(c2ccc(Cl)cc2)CCN(CCCC2(c3ccc(F)cc3)OCCO2)CC1 [UCSF16, (1,2-ethyloxoacetal)-4-[4-(p-chlorophenyl)-4-hydroxypiperidinyl]-4'-fluorobutyrophenone]
CC50 at 6 h [1]: 150 µM | HIV-1 Protease Therapeutic Index (LD50 /IC50) [2]: 2 | IC50 [2, 6]: 75 µM | solubility [3]: > 250 µM | IC50 ([4]; read-out: HIV-2 Protease IC50 (μM) 1M NaCl): 238 µM

O=C(CCC[n+]1ccc(-c2ccc(Cl)cc2)cc1)c1ccc(F)cc1 [UCSF17, 4-[4-(p-chlorophenyl)l-N-[4-(4'-fluorobutyrophenone)]pyridinium bromide]
CC50 at 6 h [1]: 500 µM | IC50 ([2]; 1M NaCl): 1200 µM | HIV-1 Protease Therapeutic Index (LD50 /IC50) ([2]; LD50/IC50): 0.4 | solubility [3]: > 250 µM

OC1(c2ccc(Cl)cc2)CCN(CCCC2(c3ccc(F)cc3)SCc3ccccc3CS2)CC1 [UCSF18, (1,2-benzene-dimethanethioacetal)-4-[4-(p-chlorophenyl)-4-hydroxypiperidinyl]-4'-fluorobutyrophenone]
CC50 at 6 h [1]: 35 µM | HIV-1 Protease Therapeutic Index (LD50 /IC50) [2]: 1.4 | IC50 [2, 5]: 25 µM | solubility [3]: > 250 µM | IC50 [4]: 10 µM

O=C(CCCN1CCC(c2ccccc2)CC1)c1ccc(F)cc1 [UCSF19]
IC50 [2, 7]: 250 µM | IC50 [4]: 323 µM

O=C(CCCN1CCC(O)(c2ccc(Cl)cc2)C(O)C1)c1ccc(F)cc1 (stereo not drawn) [UCSF20, 4-[4-(p-chlorophenyl)-3,4-dihydroxypiperidinyl)-4'-fluorobutyrophenone]
HIV-1 Protease Therapeutic Index (LD50 /IC50) [2]: 0.26 | IC50 [2, 5]: 675 µM | solubility [3]: > 250 µM

OC1(c2ccc(Cl)cc2)CCN(CCCC2(c3ccc(F)cc3)SCc3cccc(c3)CS2)CC1 [UCSF21, (1,3-benzenedimethanethioacetal)-4-[4-(p-chlorophenyl)-4-hydroxypiperidinyl]-4'-fluorobutyrophenone]
CC50 at 6 h [1]: > 500 µM | HIV-1 Protease Therapeutic Index (LD50 /IC50) [2]: > 20(10) | IC50 [2, 5]: 25 µM | solubility [3]: < 250 µM | IC50 [4]: 75 µM

OC1(c2ccc(Cl)cc2)CCN(CCCC2(c3ccc(F)cc3)SCc3ccc(cc3)CS2)CC1 [UCSF22, (1,4-benzenedimethanethioacetal)-4-[4-(p-chlorophenyl)-4-hydroxypiperidinyl]-4'-fluorobutyrophenone]
CC50 at 6 h [1]: > 500 µM | HIV-1 Protease Therapeutic Index (LD50 /IC50) [2]: 5(0.5) | IC50 [2, 5]: 100 µM | solubility [3]: < 50 µM | IC50 [4]: 54 µM

OC1(c2ccc(Cl)cc2)CCN(CCCC2(c3ccc(F)cc3)SCCCCS2)CC1 [UCSF23, (1,4-butanethioacetal)-4-[4-(p-chlorophenyl)-4-hydroxypiperidinyl]-4'-fluorobutyrophenone]
CC50 at 6 h [1]: 25 µM | HIV-1 Protease Therapeutic Index (LD50 /IC50) [2]: 1.25 | IC50 [2, 5]: 20 µM | solubility [3]: > 250 µM | IC50 [4]: 71 µM

OC1(c2ccc(Cl)cc2)CCN(CCCC(O)(c2ccccc2)c2ccc(F)cc2)CC1 (stereo not drawn) [UCSF24, 4-[4-(p-chlorophenyl)-4-hydroxypiperidinyl]-1-phenyl-1-(p-fluorophenyl)-butan-1-ol]
CC50 at 6 h [1]: 25 µM | HIV-1 Protease Therapeutic Index (LD50 /IC50) [2]: 0.4 | IC50 [2, 5]: 62 µM | solubility [3]: > 200 µM

OC1(c2ccc(Cl)cc2)CCN(CCCC(O)(Cc2ccccc2)c2ccc(F)cc2)CC1 (stereo not drawn) [UCSF25]
CC50 at 6 h [1]: 20 µM | HIV-1 Protease Therapeutic Index (LD50 /IC50) [2]: 0.2 | IC50 [2, 5]: 87 µM | IC50 [4]: 75 µM

O=C(CCCN1CCC(O)(c2ccccc2)CC1)c1ccc2ccccc2n1 [UCSF27]
CC50 at 6 h [1]: 400 µM | HIV-1 Protease Therapeutic Index (LD50 /IC50) [2]: 2(1) | IC50 [2, 6]: 198 µM | solubility [3]: < 200 µM

OC1(c2ccccc2)CCN(CCCC2(c3ccc(F)cc3)OCCO2)CC1 [UCSF28, (1,2-ethyloxoacetal)-4-(4-phenyl-4-hydroxypiperidinyl)-4'-fluorobutyrophenone]
CC50 at 6 h [1]: > 500 µM | HIV-1 Protease Therapeutic Index (LD50 /IC50) [2]: 1.2 | IC50 [2, 5]: 410 µM | solubility [3]: > 500 µM

OC1(c2ccccc2)CCN(CCCC2(c3ccccc3)OCCO2)CC1 [UCSF30, (1,2-ethyloxoacetal)-4-(4-phenyl-4-hydroxypiperidinyl)butyrophenone]
CC50 at 6 h [1]: > 250 µM | HIV-1 Protease Therapeutic Index (LD50 /IC50) [2]: 1 | IC50 [2, 5]: 265 µM | solubility [3]: > 250 µM | IC50 [4]: 500 µM

O=C(CCCN1CCC(O)(c2ccccc2)CC1)c1ccc(F)cc1 [UCSF31, 4-(4-phenyl-4-hydroxypiperidinyl)-4'-fluorobutyrophenone]
CC50 at 6 h [1]: > 250 µM | HIV-1 Protease Therapeutic Index (LD50 /IC50) [2]: > 1.1 | IC50 [2, 5]: 230 µM | solubility [3]: > 250 µM | IC50 [4]: 495 µM

OC1(c2ccccc2)CCN(CCCC(O)(c2ccccc2)c2ccc3ccccc3n2)CC1 (stereo not drawn) [UCSF32, 4-(4-phenyl-4-hydroxypiperidinyl)-1-phenyl-1-[α-(2-azanaphthyl)]-butan-1-ol]
CC50 at 6 h [1]: 25 µM | HIV-1 Protease Therapeutic Index (LD50 /IC50) [2]: 0.4 | IC50 [2, 5]: 60 µM | IC50 [4]: 80 µM

OC1(c2ccc(Cl)cc2)CCN(CCCC(O)(c2ccccc2)c2ccc(-c3ccccc3)cc2)CC1 (stereo not drawn) [UCSF33, 4-[4-(p-chlorophenyl)-4-hydroxypiperidinyl)-1-phenyl-1-(p-phenylphenyl)-butan-1-ol]
CC50 at 6 h [1]: 10 µM | HIV-1 Protease Therapeutic Index (LD50 /IC50) [2]: 1.4 | IC50 [2, 5]: 7 µM | solubility [3]: < 50 µM | IC50 [4]: 7 µM

O=C(CCCN1CCC(O)(c2ccc(Cl)cc2)CC1)c1ccncc1 [UCSF35]
CC50 at 6 h [1]: > 500 µM | HIV-1 Protease Therapeutic Index (LD50 /IC50) [2]: > 0.8 | IC50 [2, 6]: 650 µM | solubility [3]: > 500 µM

O=C(CCCC1(O)CCC(O)(c2ccc(Cl)cc2)CC1)c1ccccc1 (stereo not drawn) [UCSF45]
IC50 [2, 7]: > 1000 µM

Cc1ccc(C2(CCC(c3ccccc3)N3CCC(O)(c4ccc(Cl)cc4)CC3)SCCS2)cc1 (stereo not drawn) [UCSF48]
inhibition of HIV-1 protease at the lower salt concentrations [2]: Very little inhibition | inhibition of HIV-1 protease compared with other compounds [2]: slightly better inhibitor than USCF42 at 1M NaCl | IC50 [2, 5]: 7 µM | IC50 [4]: 10 µM

OCC1(c2ccccc2)CCN(CCCC2(c3ccc(F)cc3)OCCO2)CC1 [UCSF53]
CC50 at 6 h [1]: 500 µM | IC50 [2, 5]: > 2500 µM | solubility [3]: < 50 µM
